The values below come from PubChem BioAssay (NCI).

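48-hour exposure; five concentrations; linearly interpolated endpoints. At the GI50, growth is halved. At the TGI there is no net growth.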

Some test systems named below: BT-549 breast; CCRF-CEM leukemia; HCT-15 colon; MALME-3M melanoma; MDA-MB-435; OVCAR-3 ovarian; RXF 393 renal; SK-MEL-28 melanoma; SK-OV-3 ovarian; 786-0 renal.
What all share (test): inhibition of tumour cell growth, NCI panel, 48 h

On to `Cc1ccc(C(=O)C2CC3(CCC2(O)c2ccc(C)cc2)CC(=O)Nc2ccccc2C3=O)cc1` (stereo unspecified), for which the TGI in the test with BT-549 breast, with CCRF-CEM leukemia, in the test with HCT-15 colon, in the test on MALME-3M melanoma, in the test on MDA-MB-435 and with OVCAR-3 ovarian was over 100 µM throughout. The TGI with RXF 393 renal, with SK-MEL-28 melanoma and in the test on SK-OV-3 ovarian was over 100 µM in each case.
Consider `COc1ccc(N=C(SSC(=Nc2ccc(OC)cc2)c2ccc([N+](=O)[O-])o2)c2ccc([N+](=O)[O-])o2)cc1`, for which the TGI with 786-0 renal was 4.18 µM; with BT-549 breast, 3.22 µM; in the test on CCRF-CEM leukemia, over 22.5 µM; with HCT-15 colon it was 2.03 µM; with MALME-3M melanoma it was 4.14 µM; in the test with MDA-MB-435, 3.93 µM. Moreover, the TGI is 2.6 µM with OVCAR-3 ovarian, 2.92 µM in the test on RXF 393 renal, over 19.7 µM in the test with SK-MEL-28 melanoma and 11.1 µM in the test on SK-OV-3 ovarian.
For the molecule `CCOC(=O)C(NC(=O)c1cccc(Cl)c1)(N1CCN(c2cc3c(cc2F)c(=O)c(C(=O)O)cn3CC)CC1)C(F)(F)F` (stereo unspecified), the TGI in the test on 786-0 renal is 30.9 µM; in the test with BT-549 breast, 43.7 µM; in the test with CCRF-CEM leukemia, 10.7 µM; with HCT-15 colon, 38.2 µM; in the test with MALME-3M melanoma, 32.4 µM; in the test with MDA-MB-435, 28 µM. For the same molecule, the TGI in the test with OVCAR-3 ovarian amounted to 38.2 µM; in the test on RXF 393 renal, 39.4 µM; in the test with SK-MEL-28 melanoma, 33.9 µM; in the test on SK-OV-3 ovarian, 64.2 µM.
Regarding `COC(=O)c1ccccc1NCc1cc(O)ccc1O`, the TGI is 31.7 µM with 786-0 renal; 15 µM in the test on BT-549 breast; over 46.3 µM in the test with CCRF-CEM leukemia; 41.1 µM in the test with HCT-15 colon; 36.3 µM in the test on MALME-3M melanoma; 34.2 µM in the test with MDA-MB-435. In addition, the TGI with OVCAR-3 ovarian is 32.5 µM; in the test on RXF 393 renal, 30.3 µM; in the test with SK-MEL-28 melanoma, 35.4 µM; with SK-OV-3 ovarian it was over 100 µM.
As for `CCc1nc2cc(F)ccc2[nH]c1=O`, the TGI in the test on 786-0 renal, in the test with BT-549 breast, in the test with CCRF-CEM leukemia, in the test with HCT-15 colon, in the test on MALME-3M melanoma and in the test with MDA-MB-435 was over 100 µM each time. Further, the TGI with OVCAR-3 ovarian, in the test on RXF 393 renal, in the test with SK-MEL-28 melanoma and with SK-OV-3 ovarian was over 100 µM each time.
For the molecule `O=C(c1ccccc1)n1c2ccc(Br)cc2c2nc3ccccc3nc21`, the TGI in the test on 786-0 renal, in the test on BT-549 breast, with CCRF-CEM leukemia, in the test with HCT-15 colon, in the test with MALME-3M melanoma and in the test with MDA-MB-435 was over 100 µM throughout. For the same molecule, the TGI in the test on OVCAR-3 ovarian, in the test on RXF 393 renal and in the test with SK-MEL-28 melanoma was over 100 µM in each case.
Regarding `CCCCC(C)(C/C=C/[C@@H]1[C@@H](C(O)CCCCCC(=O)OC)C(=O)C[C@H]1O[Si](C)(C)C(C)(C)C)O[Si](C)(C)C` (stereo partly specified), the TGI in the test on 786-0 renal was over 100 µM; with BT-549 breast, over 100 µM; with CCRF-CEM leukemia, 85.4 µM; in the test with HCT-15 colon, over 100 µM; in the test with MALME-3M melanoma it was over 100 µM; with MDA-MB-435, over 100 µM. The TGI in the test with OVCAR-3 ovarian, in the test on RXF 393 renal, with SK-MEL-28 melanoma and in the test with SK-OV-3 ovarian was over 100 µM throughout.
As for `CC(C)S1=C2C(=O)CC(C)(C)CC2=Nc2ccccc21` (stereo unspecified), the TGI in the test with 786-0 renal, with BT-549 breast, in the test with CCRF-CEM leukemia, with HCT-15 colon, in the test with MALME-3M melanoma and with MDA-MB-435 was over 100 µM in each case. For the same molecule, the TGI in the test with OVCAR-3 ovarian, in the test with RXF 393 renal, with SK-MEL-28 melanoma and with SK-OV-3 ovarian was over 100 µM in each case.
With `CN(C)c1ccc(/C=C2\CCCCCC2=O)cc1`, the TGI in the test on 786-0 renal, in the test with BT-549 breast, with CCRF-CEM leukemia, with MALME-3M melanoma, in the test with MDA-MB-435 and in the test with OVCAR-3 ovarian was over 100 µM in each case. Further, the TGI with RXF 393 renal, in the test with SK-MEL-28 melanoma and in the test with SK-OV-3 ovarian was over 100 µM in each case.
`Cc1cc(N(CCCl)CCCl)ccc1/C=N\NC(=O)c1cccnc1`: the GI50 with BT-549 breast is 19.4 µM; with CCRF-CEM leukemia, 9.23 µM; in the test with HCT-15 colon, 21.9 µM; with MALME-3M melanoma, 26.2 µM; in the test on MDA-MB-435, 24.6 µM; with OVCAR-3 ovarian, 23.1 µM. Besides, the GI50 with RXF 393 renal is 19.2 µM; with SK-MEL-28 melanoma it was 43.4 µM. Further, the TGI is 61.6 µM in the test on BT-549 breast; over 100 µM with CCRF-CEM leukemia; over 100 µM in the test on HCT-15 colon; 83.7 µM with MALME-3M melanoma; over 100 µM with MDA-MB-435; 79.3 µM with OVCAR-3 ovarian. Moreover, the results for the TGI in the test with RXF 393 renal and in the test on SK-MEL-28 melanoma were 48.6 µM and over 100 µM, respectively.
`O=C1Cc2c(-c3ccccc3)cc(-c3ccc(Cl)cc3)nc2-c2ccccc2N1`: the TGI with 786-0 renal was 3.51 µM; with BT-549 breast it was 40.2 µM; with CCRF-CEM leukemia it was over 53.4 µM; in the test on HCT-15 colon, over 55 µM; in the test on MALME-3M melanoma, over 34.4 µM; with MDA-MB-435, over 45.7 µM. For the same molecule, the TGI in the test on OVCAR-3 ovarian is 22.8 µM; with RXF 393 renal, 17.3 µM; in the test with SK-MEL-28 melanoma, over 31.8 µM; in the test with SK-OV-3 ovarian, 7.85 µM.
Regarding `Cc1nnc(N)s/c1=N/O`, the TGI with 786-0 renal, in the test with BT-549 breast, with CCRF-CEM leukemia, in the test on HCT-15 colon, in the test on MALME-3M melanoma and with MDA-MB-435 was over 100 µM each time. In addition, the TGI in the test with OVCAR-3 ovarian, with RXF 393 renal, in the test on SK-MEL-28 melanoma and in the test on SK-OV-3 ovarian was over 100 µM each time.
Turning to `COc1ccc(OC)c2c(Nc3ccc(S(=O)(=O)O)c4cc(S(=O)(=O)O)cc(S(=O)(=O)O)c34)cc(C)nc12`, the TGI with 786-0 renal, in the test with BT-549 breast, in the test on CCRF-CEM leukemia, in the test on HCT-15 colon, with MALME-3M melanoma and in the test on MDA-MB-435 was over 100 µM in each case. For the same molecule, the TGI with OVCAR-3 ovarian, in the test on RXF 393 renal, in the test with SK-MEL-28 melanoma and in the test on SK-OV-3 ovarian was over 100 µM in each case.
With `CC(=O)OC/C=C/Cn1nc(Br)c(=O)[nH]c1=O`, the TGI in the test with 786-0 renal, with BT-549 breast, in the test with CCRF-CEM leukemia, in the test with HCT-15 colon, with MALME-3M melanoma and in the test with MDA-MB-435 was over 100 µM each time. Moreover, the TGI with OVCAR-3 ovarian, in the test with RXF 393 renal and in the test on SK-MEL-28 melanoma was over 100 µM each time.
Turning to `CC(=O)Oc1cc(OC(C)=O)c2c(c1C)CC[C@@H]1[C@@H]2CC[C@]2(C)[C@@H](OC(C)=O)CC[C@@H]12`, the TGI came to 34.8 µM with 786-0 renal; 34.1 µM in the test with BT-549 breast; 49.4 µM in the test on CCRF-CEM leukemia; 33.3 µM with HCT-15 colon; 29.2 µM in the test on MALME-3M melanoma; 31.3 µM in the test on MDA-MB-435. The TGI in the test with OVCAR-3 ovarian came out at 31.7 µM; with RXF 393 renal it was 27.7 µM; in the test on SK-MEL-28 melanoma, 33 µM.
On to `CCCCCNC(=O)OC1CCn2c1nc1c2C(=O)C(C)=C(N2CC2)C1=O` (stereo unspecified), for which the TGI with 786-0 renal is 1.75 µM; in the test on BT-549 breast, 3.08 µM; with CCRF-CEM leukemia, over 100 µM; in the test on HCT-15 colon, 4.45 µM; with MALME-3M melanoma, 4.27 µM; in the test with MDA-MB-435, 3.13 µM. In addition, the TGI with OVCAR-3 ovarian worked out at 7.05 µM; in the test on RXF 393 renal, 1.82 µM; with SK-MEL-28 melanoma, 2.78 µM.
Consider `CCCCSC1=N/C(=C\c2ccccc2O)C(Cl)=N1`, for which the TGI in the test with 786-0 renal, in the test with BT-549 breast, in the test on HCT-15 colon, with MALME-3M melanoma, in the test with MDA-MB-435 and in the test on OVCAR-3 ovarian was over 100 µM each time. Besides, the TGI with RXF 393 renal, in the test with SK-MEL-28 melanoma and with SK-OV-3 ovarian was over 100 µM throughout.
Take `COC(=O)C1CCC(=S)N1C(C)=O` (stereo unspecified): the TGI in the test on 786-0 renal, in the test on BT-549 breast, in the test with HCT-15 colon, in the test with MALME-3M melanoma, in the test with MDA-MB-435 and in the test with OVCAR-3 ovarian was over 100 µM in each case. In addition, the TGI in the test on RXF 393 renal, in the test with SK-MEL-28 melanoma and in the test with SK-OV-3 ovarian was over 100 µM throughout.
With `COc1ccc(/[N+]([O-])=C/c2ccccc2OC(=S)S)cc1`, the TGI in the test on 786-0 renal was 65.5 µM; in the test on BT-549 breast, 66.6 µM; with HCT-15 colon it was over 100 µM; in the test on MALME-3M melanoma, over 100 µM; with MDA-MB-435, 55.7 µM; in the test on OVCAR-3 ovarian, over 100 µM. For the same molecule, the TGI in the test on RXF 393 renal, with SK-MEL-28 melanoma and in the test with SK-OV-3 ovarian was over 100 µM each time.
Turning to `CCc1n[nH]c(=O)n1-c1ccncc1`, the TGI with 786-0 renal, in the test with BT-549 breast, with CCRF-CEM leukemia, with HCT-15 colon, in the test with MALME-3M melanoma and in the test with MDA-MB-435 was over 100 µM throughout. Also, the TGI with OVCAR-3 ovarian, in the test with RXF 393 renal and in the test on SK-MEL-28 melanoma was over 100 µM each time.
